# Laboratory results taken from patent publication EP4799624A2 (priority 2021, dated 2023).
# Assay: in vivo
# Conditions: mouse, po
structure (smiles),measurement,value
"Cc1c(-c2ccc(O)cc2)n(Cc2ccc(OCCN3CCCCC3)cc2)c2ccc(O)cc12 [Pipendoxifene, 2-(4-hydroxyphenyl)-3-methyl-1-[[4-(2-piperidin-1-ylethoxy)phenyl]methyl]indol-5-ol]",NOAEL,≥ 750 mg/kg/day
